Experiment [1] concerns the target Vascular endothelial growth factor receptor 2 (Homo sapiens, UniProt P35968). In words: Inhibitory Activities of the Compounds on VEGFR2. On the procedure: Detect compounds on VEGFR2 (KDR) by mobility shift assay. The initial test concentration of a compound was 1000 nM, 3 times dilution, 10 concentrations, and detection in duplicate. Nintedanib (Selleckchem, Cat. S1010) was used as the positive control compound. The operation method was briefly described as follows: kinase VEGFR2 (Carna, Cat. 08-191) at the final concentration of 0.5 nM and the test compound were mixed in the Optiplate-384F well plate and incubated for 10 minutes at room temperature. Then, ATP at a final concentration of 95 μM and 3 μM Kinase substrate 22 (Gill Biochemical (glbiochem), Cat. 112393) were added. After mixing, react at room temperature for 30 minutes. Add stop detection solution to terminate the reaction and read the conversion rate with Caliper EZ ReaderlI.

A further experiment deals with T1, Histone deacetylase 6 (Homo sapiens, UniProt Q9UBN7).
T1 sequence (Q9UBN7 whole entry): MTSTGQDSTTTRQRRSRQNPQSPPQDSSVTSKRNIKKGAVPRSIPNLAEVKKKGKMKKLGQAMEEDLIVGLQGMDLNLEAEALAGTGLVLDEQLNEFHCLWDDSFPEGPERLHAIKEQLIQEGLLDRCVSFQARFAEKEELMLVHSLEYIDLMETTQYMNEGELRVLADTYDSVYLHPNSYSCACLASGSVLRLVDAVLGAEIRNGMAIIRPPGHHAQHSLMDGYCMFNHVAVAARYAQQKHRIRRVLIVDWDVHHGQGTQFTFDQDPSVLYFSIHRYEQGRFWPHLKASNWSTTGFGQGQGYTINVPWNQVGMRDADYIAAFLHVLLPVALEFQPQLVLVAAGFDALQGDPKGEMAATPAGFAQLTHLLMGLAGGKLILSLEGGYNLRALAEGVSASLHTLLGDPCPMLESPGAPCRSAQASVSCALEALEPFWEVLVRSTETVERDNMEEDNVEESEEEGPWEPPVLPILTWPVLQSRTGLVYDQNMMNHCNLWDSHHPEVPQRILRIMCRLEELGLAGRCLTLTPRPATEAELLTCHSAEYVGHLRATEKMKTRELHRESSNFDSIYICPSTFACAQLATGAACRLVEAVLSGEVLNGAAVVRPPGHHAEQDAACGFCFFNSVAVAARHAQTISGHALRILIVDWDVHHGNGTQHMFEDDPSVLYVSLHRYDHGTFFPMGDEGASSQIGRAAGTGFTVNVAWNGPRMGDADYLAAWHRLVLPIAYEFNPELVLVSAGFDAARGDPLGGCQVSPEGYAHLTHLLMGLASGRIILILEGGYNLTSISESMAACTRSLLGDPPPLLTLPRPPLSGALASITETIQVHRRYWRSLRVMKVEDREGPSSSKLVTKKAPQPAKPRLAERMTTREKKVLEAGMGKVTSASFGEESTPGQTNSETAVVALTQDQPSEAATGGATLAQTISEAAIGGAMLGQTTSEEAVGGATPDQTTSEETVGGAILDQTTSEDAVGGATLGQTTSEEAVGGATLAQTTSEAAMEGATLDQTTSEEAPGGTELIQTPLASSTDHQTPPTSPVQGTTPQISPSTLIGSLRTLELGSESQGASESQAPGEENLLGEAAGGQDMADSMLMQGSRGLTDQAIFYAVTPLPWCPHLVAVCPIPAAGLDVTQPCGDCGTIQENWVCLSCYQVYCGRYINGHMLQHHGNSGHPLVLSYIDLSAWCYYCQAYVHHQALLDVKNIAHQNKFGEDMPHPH
In words: Inhibitory Activity of the Compounds on HDAC6. On the procedure: Prepare a 10 mM stock solution of a compound with DMSO. Take 10 μl of stock solution and dilute with 90 μl DMSO to become a 1 mM working solution. […] Add 30 μl trypsin/SAHA mixture (20 mM Hepes pH 8.0, 100 mM NaCl, 10 mM SAHA, 0.01 mg/ml trypsin), incubate at 23° C. for 60 minutes to terminate the reaction. Finally, read fluorescence data by Envision (390 nm excitation, 460 nm emission). […] Finally, analyze the data by XLfit5 software and calculate the IC50 value of the compound. Vorinostat (SAHA) was a positive reference compound.

Molecules are shown by their SMILES.

Chain of Vascular endothelial growth factor receptor 2 (P35968 whole entry): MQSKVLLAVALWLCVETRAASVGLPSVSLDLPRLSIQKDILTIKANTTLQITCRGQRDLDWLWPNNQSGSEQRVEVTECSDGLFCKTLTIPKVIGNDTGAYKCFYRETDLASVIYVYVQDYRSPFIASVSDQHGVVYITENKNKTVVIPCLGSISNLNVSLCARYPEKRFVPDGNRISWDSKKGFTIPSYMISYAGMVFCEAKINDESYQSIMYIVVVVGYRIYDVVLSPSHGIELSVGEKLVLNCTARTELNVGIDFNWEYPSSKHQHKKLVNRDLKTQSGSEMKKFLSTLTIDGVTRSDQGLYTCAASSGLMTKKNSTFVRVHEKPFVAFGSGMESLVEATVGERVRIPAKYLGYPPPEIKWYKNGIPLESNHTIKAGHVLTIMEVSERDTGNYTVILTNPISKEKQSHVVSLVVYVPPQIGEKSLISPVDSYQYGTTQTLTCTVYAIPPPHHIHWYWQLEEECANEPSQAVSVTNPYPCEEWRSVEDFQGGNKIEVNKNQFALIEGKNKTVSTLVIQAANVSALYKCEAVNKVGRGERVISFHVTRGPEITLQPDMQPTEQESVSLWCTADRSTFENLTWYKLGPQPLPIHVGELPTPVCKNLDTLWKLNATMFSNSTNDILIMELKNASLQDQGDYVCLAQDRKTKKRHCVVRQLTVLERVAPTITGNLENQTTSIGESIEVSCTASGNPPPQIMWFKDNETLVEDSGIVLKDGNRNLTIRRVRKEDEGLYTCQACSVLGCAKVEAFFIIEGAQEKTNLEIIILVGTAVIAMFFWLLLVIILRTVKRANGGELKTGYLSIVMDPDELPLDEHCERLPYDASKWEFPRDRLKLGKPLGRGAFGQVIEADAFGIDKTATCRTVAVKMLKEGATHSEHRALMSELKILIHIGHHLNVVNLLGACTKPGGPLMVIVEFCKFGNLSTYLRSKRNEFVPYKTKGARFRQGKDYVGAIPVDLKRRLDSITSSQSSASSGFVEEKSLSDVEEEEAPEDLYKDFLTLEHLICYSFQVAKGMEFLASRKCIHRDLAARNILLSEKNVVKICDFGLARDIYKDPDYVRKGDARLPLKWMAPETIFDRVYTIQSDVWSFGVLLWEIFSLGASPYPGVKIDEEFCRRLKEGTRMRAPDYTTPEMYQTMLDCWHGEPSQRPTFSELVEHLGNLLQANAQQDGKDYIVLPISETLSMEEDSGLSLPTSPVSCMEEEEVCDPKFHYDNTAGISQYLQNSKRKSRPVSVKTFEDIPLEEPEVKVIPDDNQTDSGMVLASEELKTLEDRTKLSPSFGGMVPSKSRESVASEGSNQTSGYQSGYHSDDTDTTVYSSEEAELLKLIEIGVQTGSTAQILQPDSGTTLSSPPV

As for `COc1cc2c(Oc3ccc(NC(=O)C4(C(=O)Nc5ccc(F)cc5)CC4)cc3F)ccnc2cc1OCCCNCCCS` [US12304898, Example 51], the IC50 (as a rule, the concentration needed to halve the response being measured) in experiment [1] was determined as 7.7 nM. In other words, the single-digit nanomolar range.
Same read-out and setting: in the case of `COc1cc2c(Oc3ccc(NC(=O)C4(C(=O)Nc5ccc(F)cc5)CC4)cc3F)ccnc2cc1OCCCNCCCSC(C)=O` [US12304898, Example 50] it was 6.6 nM.
As for `COc1cc2c(Oc3ccc(NC(=O)C4(C(=O)Nc5ccc(F)cc5)CC4)cc3F)ccnc2cc1OCCCN(C)CCCS` [US12304898, Example 53], in experiment [1], the half-inhibitory concentration (IC50) stood at 4.7 nM.
With `COc1cc2c(Oc3ccc(NC(=O)C4(C(=O)Nc5ccc(F)cc5)CC4)cc3F)ccnc2cc1OCCCCCNC(=O)CSC(C)=O` [US12304898, Example 57], the results for the IC50 (on Histone deacetylase 6; in experiment [1]) were 48.3 nM and 20 nM, respectively.
The matching figures for `COc1cc2c(Oc3ccc(NC(=O)C4(C(=O)Nc5ccc(F)cc5)CC4)cc3F)ccnc2cc1OCCCCNC(=O)CSC(C)=O` [US12304898, Example 61]: 29.9 nM and 12 nM.
For the compound `COc1cc2c(Oc3ccc(NC(=O)C4(C(=O)Nc5ccc(F)cc5)CC4)cc3F)ccnc2cc1OCCCN(C)CCCSC(C)=O` [US12304898, Example 52], in experiment [1], the IC50 stood at 3.2 nM.
Compound `CC(=O)SCC(=O)NCCCCCOc1cc2nccc(Oc3ccc(NC(=O)C4(C(=O)NC5CC5)CC4)cc3F)c2cc1C(N)=O` [US12304898, Example 73] returned an IC50 in experiment [1] of 45 nM.
Still for that read-out and setting: as for `COc1cc2c(Oc3ccc(NC(=O)C4(C(=O)NC5CC5)CC4)cc3F)ccnc2cc1OCCCCCNC(=O)CSC(C)=O` [US12304898, Example 67], the figure is 30 nM.
Regarding `COc1cc2c(Oc3ccc(NC(=O)C4(C(=O)Nc5ccc(F)cc5)CC4)cc3F)ccnc2cc1OCCCCCNC(=O)CS` [US12304898, Example 58], the IC50 against Histone deacetylase 6 came out at 15.4 nM; in experiment [1], 25 nM.
The matching figures for `COc1cc2c(Oc3ccc(NC(=O)C4(C(=O)Nc5ccc(F)cc5)CC4)cc3F)ccnc2cc1OCCCCCCNC(=O)CSC(C)=O` [US12304898, Example 63]: 97.8 nM and 36 nM.

The record behind these values is BindingDB's records for patent US12304898 (Primegene (Beijing), 2025).
